One data set deals with T1, OCT2 Ser270 (Ala270Ser) (Homo sapiens, UniProt O15244).
T1 sequence (O15244 1-555): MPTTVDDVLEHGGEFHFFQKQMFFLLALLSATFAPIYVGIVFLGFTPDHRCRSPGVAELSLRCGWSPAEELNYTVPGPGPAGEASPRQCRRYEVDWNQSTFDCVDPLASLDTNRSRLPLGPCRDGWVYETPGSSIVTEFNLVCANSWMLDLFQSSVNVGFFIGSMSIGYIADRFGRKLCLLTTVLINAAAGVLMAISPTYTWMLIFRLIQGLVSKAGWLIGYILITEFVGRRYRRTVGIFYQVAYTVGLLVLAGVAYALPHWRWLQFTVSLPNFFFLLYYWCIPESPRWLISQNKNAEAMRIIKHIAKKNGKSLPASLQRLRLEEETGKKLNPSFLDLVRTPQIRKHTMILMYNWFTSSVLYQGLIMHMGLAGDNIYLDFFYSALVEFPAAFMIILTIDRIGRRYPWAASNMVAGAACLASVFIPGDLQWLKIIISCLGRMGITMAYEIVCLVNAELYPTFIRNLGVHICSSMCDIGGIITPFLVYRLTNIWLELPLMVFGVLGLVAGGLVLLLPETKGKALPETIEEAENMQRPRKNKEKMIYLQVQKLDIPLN
In words: Ranitidine uptake in HEK293 cells overexpressing OCT2 variant (Ser270). It counts as in vitro ADME. The note with it: 1 μM ranitidine, 2 min, not significant.

Another data set deals with T2, OCT1*2 (Met420del) (Homo sapiens, UniProt O15245, DEL420-420/L160F).
T2 sequence (O15245 with tags, fused parts or gaps L160F/DEL420-420): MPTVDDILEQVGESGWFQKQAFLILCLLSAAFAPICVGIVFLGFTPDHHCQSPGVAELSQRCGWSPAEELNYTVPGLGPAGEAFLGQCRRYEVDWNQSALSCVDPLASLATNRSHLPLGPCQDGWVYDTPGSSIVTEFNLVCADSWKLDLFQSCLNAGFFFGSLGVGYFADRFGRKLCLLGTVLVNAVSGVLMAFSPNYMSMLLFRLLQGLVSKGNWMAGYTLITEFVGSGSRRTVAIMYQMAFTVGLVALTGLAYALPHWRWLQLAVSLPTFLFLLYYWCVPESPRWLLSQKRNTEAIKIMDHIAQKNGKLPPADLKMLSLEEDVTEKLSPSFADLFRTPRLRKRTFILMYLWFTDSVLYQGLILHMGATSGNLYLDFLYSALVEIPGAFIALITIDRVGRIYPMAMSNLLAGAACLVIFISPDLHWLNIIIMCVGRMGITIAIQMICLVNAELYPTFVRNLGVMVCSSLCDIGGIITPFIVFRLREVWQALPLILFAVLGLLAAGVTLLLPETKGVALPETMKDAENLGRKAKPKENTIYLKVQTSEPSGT
Put plainly: Inhibition by ranitidine of OCT1-mediated substrate uptake, OCT1*2 allele, HEK293 cells. It counts as cell-based. Further details: expressed in transfected cells; host or cells: HEK293 T-REx (Flp-In).

Another data set concerns the target T3, OCT1*1B (Homo sapiens, UniProt O15245, L160F).
T3 sequence (O15245 1-554 L160F): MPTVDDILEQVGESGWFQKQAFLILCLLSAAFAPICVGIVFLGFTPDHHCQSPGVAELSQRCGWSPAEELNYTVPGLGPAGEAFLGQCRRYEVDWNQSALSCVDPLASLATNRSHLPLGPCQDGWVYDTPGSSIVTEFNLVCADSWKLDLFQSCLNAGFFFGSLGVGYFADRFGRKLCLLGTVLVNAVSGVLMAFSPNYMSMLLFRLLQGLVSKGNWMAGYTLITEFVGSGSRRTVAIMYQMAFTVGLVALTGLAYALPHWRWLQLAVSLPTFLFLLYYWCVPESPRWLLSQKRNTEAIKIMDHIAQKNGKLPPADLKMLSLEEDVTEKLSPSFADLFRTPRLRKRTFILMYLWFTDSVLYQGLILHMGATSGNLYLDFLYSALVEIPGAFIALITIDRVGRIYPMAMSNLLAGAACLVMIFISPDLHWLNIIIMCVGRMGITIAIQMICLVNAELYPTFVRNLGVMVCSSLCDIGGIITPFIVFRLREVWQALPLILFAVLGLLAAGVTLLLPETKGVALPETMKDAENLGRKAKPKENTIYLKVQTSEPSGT
Put plainly: in vitro. The note with it: HEK293 cells overexpressing OCT1*1B, pH 7.4, Km (± SEM), OCT1*1B reference allele, 10-600 μM ranitidine, control-cell uptake subtracted.

For data set [1] the following is noted: physiological pH of 7.4; no reference given; cited from earlier work.
For data set [2] the following is noted: cited from earlier work.
A short description of data set [3]: Estimated ranitidine concentrations in portal vein and gastrointestinal tract. The arrangement: species or system human. Particulars: highest clinical dose (300 mg) in a volume of 250 ml.
Source text: The concentrations were chosen to be representative for the maximal unbound plasma (Cmax) and the estimated maximal unbound portal vein concentration (Cmax port).
On the set-up of data set [4]: method as in ref 56 = [56]; 56 Pharma ® A. Fachinformation Ranitidin 150–1 A Pharma ® , Ranitidin 300–1 A Pharma ® : Rote Liste ®; 2013 [updated June 2013; cited 2016 21.10.2016]. Particulars: cited from earlier work.
On the set-up of data set [5]: method as in ref 5 = [5]; 5 Inc. G. PrZANTAC ® [product monograph]. Canada: GlaxoSmithKline Inc.; 2015 [updated 15.01.2015; cited 2016 21.10.2016]. Particulars: long-term toxicity tests in animals; cited from earlier work.

Where two headings read alike, the source gives them in different places.

Source text for OCT1*1B: (§1) HEK293 or CHO cells overexpressing the human OCT1 alleles *1A (characterized by the amino acid substitution Met408Val), *1B, *1C (Phe160Leu), *1D (Pro341Leu/Met408Val), *2 (Met420del), *3 (Arg61Cys), *4 (Gly401Ser), *5 (Gly465Arg/Met420del), *6 (Cys88Arg/Met420del), *7 (Ser14Phe), *8A (Arg488Met), *8B (Arg488Met/Met408Val), *9 (Pro117Leu), *10 (Ser189Leu), *11 (Ile449Thr), *12 (Ser29Leu), or *13 (Thr245Met), the human OCT2 reference and variant alleles (Ala270Ser), human OCT3, and the control cells (transfected with the empty pcDNA5 vector) were generated by targeted chromosomal integration using the Flp-In™ System (Life Technologies, Darmstadt, Germany).
Six hundred thousand HEK293 or CHO cells were plated per well in 12-well plates (pre-coated with poly-D-lysine) and were grown for 48 hours to reach confluence. Cells were kept at 37°C and 5% CO2 in DMEM (HEK293) or RPMI (CHO), supplemented with 10% FCS, 100 U/ml penicillin, and 100 μg/ml streptomycin. Uptake experiments were performed at pH 7.4 using HBSS supplemented with 10 mM HEPES buffer (herein referred to as HBSS+). Cells were washed once with 1 ml pre-warmed HBSS+ buffer (37°C). […] Cells were washed twice with 2 ml ice-cold HBSS+ and lysed in 500 μl lysis buffer.
(§2) For all transport measurements, the intracellular amount of substrate was normalized to the total amount of protein of the sample as measured using the bicinchoninic acid assay [49].
(§3) For quantification of intracellular substrates, the cell debris were removed by centrifugation at 17,000 x g for 10 min. Four-hundred μl of the supernatant was evaporated to dryness under nitrogen flow at 40°C. The residue was reconstituted in 200 μl 0.1% formic acid and 10 μl were injected into the LC-MS/MS. For the LC-MS/MS analysis an API 4000™ system tandem mass spectrometer (AB SCIEX, Darmstadt, Germany) was used. Samples were separated using a Brownlee SPP RP-Amide Column (4.6x100 mm, 2.7 μm; PerkinElmer), with a SecurityGuard C18, 4x2 mm pre-column (Phenomenex, Aschaffenburg, Germany).
(§4) Nonlinear regression to the Michaelis-Menten equation was performed to determine Km and vmax using GraphPad Prism version 6 (GraphPad Software Inc., La Jolla, CA, USA). Nonlinear regression to the Hill equation v = vmin+(vmax-vmin)/1+([I]/IC50)^-Hillslope was performed to determine IC50 using SigmaPlot version 12.0 (Systat Software, San Jose, California, USA).
Source text for OCT1*2 (Met420del): as §1
Cells were kept at 37°C and 5% CO2 in DMEM (HEK293) or RPMI (CHO), supplemented with 10% FCS, 100 U/ml penicillin, and 100 μg/ml streptomycin. Uptake experiments were performed at pH 7.4 using HBSS supplemented with 10 mM HEPES buffer (herein referred to as HBSS+). Cells were washed once with 1 ml pre-warmed HBSS+ buffer (37°C). […] Cells were washed twice with 2 ml ice-cold HBSS+ and lysed in 500 μl lysis buffer.
The intracellular concentration of MPP^+ was determined using liquid scintillation counting of radioactively labeled substrate. To this end, 400 μl cell lysate was measured with 9 ml Aquasafe Plus liquid scintillator using the Scintillation Counter LS6500 (Beckman Coulter, Krefeld, Germany). Intracellular ASP^+ concentrations were determined using fluorescence spectroscopy.
as §2, §3, §4
Source text for OCT2 Ser270 (Ala270Ser): as §1
Six hundred thousand HEK293 or CHO cells were plated per well in 12-well plates (pre-coated with poly-D-lysine) and were grown for 48 hours to reach confluence. Cells were kept at 37°C and 5% CO2 in DMEM (HEK293) or RPMI (CHO), supplemented with 10% FCS, 100 U/ml penicillin, and 100 μg/ml streptomycin. Uptake experiments were performed at pH 7.4 using HBSS supplemented with 10 mM HEPES buffer (herein referred to as HBSS+). […]
as §2
For quantification of intracellular substrates, the cell debris were removed by centrifugation at 17,000 x g for 10 min. […]

For the compound `CNC(=C[N+](=O)[O-])NCCSCc1ccc(CN(C)C)o1` [ranitidine, Ranitidine], the “reduction of ranitidine uptake, Ser270 allele in comparison to the Ala270 allele” value at OCT2 Ser270 (Ala270Ser) is reported as 9%. In addition, on OCT1*2 (Met420del) (human, HEK293 cells overexpressing OCT1*2 (Met420del), pH 7.4, probe metformin (100 μM), substrate 100 μM metformin, OCT1*2, 2 min, HEK293), half-maximal inhibition (IC50 at 2 min) was put at 14.8 µM. Besides, the inhibition at 2 min at OCT1*2 (Met420del) (human, HEK293 cells overexpressing OCT1*2 (Met420del), pH 7.4, probe metformin (100 μM), read-out: inhibition of metformin uptake) is 50%; at OCT1*2 (Met420del) (human, HEK293 cells overexpressing OCT1*2 (Met420del), pH 7.4, probe morphine (0.1 μM), read-out: inhibition of morphine uptake), no more than 30%; at OCT1*2 (Met420del) (human, HEK293 cells overexpressing OCT1*2 (Met420del), pH 7.4, high concentrations expected in the gastrointestinal tract, all substrates tested, OCT1*2, read-out: inhibition of substrate uptake), greater than 70%. For the same compound, the IC50 turned out to be 34.4 µM against OCT1*2 (Met420del) (substrate 0.1 μM MPP+, OCT1*2, 2 min, HEK293); 19.5 µM against OCT1*2 (Met420del) (substrate 0.1 μM morphine, OCT1*2, 2 min, HEK293); 155 µM on OCT1*2 (Met420del) (substrate 1 μM ASP+, OCT1*2, 2 min, HEK293). Moreover, the Km at 2 min at OCT1*1B came out at 62.9 µM. In addition, the “ranitidine molecules that are positively charged organic cations” value in data set [1] is recorded as 86%. In addition, the “portion eliminated unchanged via renal excretion” value in data set [2] (after oral administration) is “approximately half”. The oral bioavailability in data set [2] was 50–60%. The “time to maximal plasma concentrations after administration” value in data set [2] is on record as “two to three”. In data set [2] (highest clinical dose (300 mg)), the “[I]1, mean unbound ranitidine steady state total Cmax” value is 2200 nM. For the same compound, the “bioavailability in hepatic dysfunction” value in data set [2] (increase from 50%) is on record as 70%. The volume of distribution in data set [2] (no reference given) was roughly 1.4 L/kg. Further, in data set [3], the “[I]2, theoretical maximal gastrointestinal ranitidine concentration after oral administration” value was 3800 µM. For the same compound, in data set [4], the “dosages exceeding the single dose not associated with a higher prevalence of adverse reactions” value was “more than 20 fold”. For the same compound, the “plasma concentrations exceeding the human maximal plasma concentration without significant adverse reactions” value in data set [5] is on record as 50 fold.

By IC50 is commonly meant the midpoint of a concentration-inhibition curve. A lower IC50 goes with greater potency in that assay. What is called inhibition is the change of the read-out against control, counted positive when it falls. By Km is commonly meant the substrate concentration at which the rate is half of its maximum.

The values above are taken from publication PMC5728534 (PLoS ONE, 2017).
